Data reported in patent US9856225B2, “Substituted phenazines as antimicrobial agents” (University of Florida Research Foundation, Incorporated, priority 2013, dated 2018).
pEC50: −log10 of the molar value. In brackets after ≈: the same amount, converted by molar mass. Several values for one entry are separate records, joined by “and”; a condition that tells them apart may be missing. Equal entries are not always repeated. Marks after values point to notes of the source that are not given here.

Assays:
[1] = system: MRSA-2 biofilms; assay: Biofilm eradication assay (MBEC); format: cell-based, Staphylococcus aureus; settings: for Biofilm Eradication MBEC: MRSA-2
Procedure: Biofilm eradication assays. […] The protocol for the biofilm eradication assays was essentially the same as the protocols reported in Eun et al., J. Am. Chem. Soc., 2012, 134, 11322 and Ceri et al., J. Clin. Microbiol., 1999, 37, 1771. Biofilm eradication assays were essentially biofilm dispersion assays with the addition of a final treatment with fresh media (and incubation at 37° C. for 24 hours) instead of crystal violet staining. This final incubation allowed viable cells within the biofilm to grow. At the end of this final incubation in biofilm eradication assays, microtiter wells void of turbidity represented eradicated biofilms, and the lowest concentration at which no visible growth was observed was referred to as the minimum biofilm eradication concentration (MBEC). Potent biofilm eradicating small molecules are extremely rare (Fletcher et al., Tetrahedron, 2014, 70, 6373; Jennings et al., ChemBioChem, 2014, 15, 2211). For these experiments, MRSA-2 was selected as the model since MRSA-2 is a multidrug-resistant, biofilm-forming clinical isolate of Staphylococcus aureus (Priyaja et al., Cytotechnol., 2014, doi: 10.1007/s10616-014-9765-5).

[2] = system: MRSA-2 biofilms; assay: MRSA-2 biofilm dispersion assay; format: cell-based; settings: Staphylococcus aureus, 24 h, read-out: MRSA-2 biofilm dispersion EC50
[3] = system: Staphylococcus epidermidis (ATCC 12228); assay: MIC broth microdilution (CLSI), Luria Broth; format: cell-based; settings: for MIC: ATCC12228, Table 1, ATCC 12228, read-out: Staphylococcus epidermidis MIC; for fold more potent than compound 1: from MIC
Summary of the method: (§1)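 Two-fold serial dilutions (0.10–100 μM, eleven points) in Luria Broth, each well inoculated with 10^5 cells from log-phase culture (OD600 0.5), per CLSI broth microdilution. DMSO vehicle up to 1% v/v as negative control; kanamycin positive control for the staphylococci.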

[4] = system: Pseudomonas aeruginosa (PAO1); assay: MIC broth microdilution (CLSI), Luria Broth; format: cell-based; settings: Table 1, PAO1, read-out: Pseudomonas aeruginosa MIC
Summary of the method: as §1

[5] = system: MRSA-2; assay: MIC against MRSA-2; format: cell-based; settings: Staphylococcus aureus, read-out: MIC against MRSA-2
Procedure: Antibiotic Susceptibility Tests (MIC Assay Protocol). The minimum inhibitory concentration (MIC) for each compound described herein was determined by the broth microdilution method as recommended by the Clinical and Laboratory Standards Institute (CLSI) (Clinical and Laboratory Standards Institute. 2009. Methods for dilution antimicrobial susceptibility tests for bacteria that grow aerobically; approved standard, eighth edition (M7-A8)). In a 96-well plate, eleven two-fold serial dilutions of each compound were made in a final volume of 100 μL Luria Broth (one column served as a blank; see the MIC assay described herein). Each well was inoculated with 10^5 bacterial cells at the initial time of incubation, prepared from a fresh log phase culture (OD600 of 0.5). […] The concentration range tested for each compound during this study was 0.10 to 100 μM. DMSO served as the vehicle and negative control in each microdilution MIC assay. DMSO was serially diluted at the same concentration as the compounds with a top concentration of 1% v/v. Bacterial strains used: Staphylococcus aureus (ATCC 25923), Staphylococcus epidermidis (ATCC 12228) and Pseudomonas aeruginosa (PAO1). […]
Vancomycin's activity against MRSA-2. Vancomycin was also evaluated against MRSA-2 since vancomycin has been considered to be the drug of last resort against MRSA infections.

[6] = Hydrolysis stability in sterile water; format: physicochemical; settings: 24 hours at 37° C., static, TLC and NMR
Procedure: Compound storage. Solid stocks of the compounds described herein were stored at −80° C. in vials sealed with PARAFILM. Between 2.0 and 4.5 milligrams of each compound was weighed out, and a 10 mM DMSO stock solution of each compound were prepared. DMSO stock solutions were stored at room temperature in the dark (e.g., wrapped in aluminum foil). At this concentration, a few compounds required gentle heating to completely solubilize. DMSO stock solutions were not subjected to any freeze-thaw cycles to prevent compound breakdown. The compounds were stable in DMSO for several weeks under these mild storage conditions, with the exception of pyocyanin. Pyocyanin is unstable in DMSO at room temperature after one day. […] DMSO stock solutions of about 2 milligrams of pyocyanin were made fresh each day. The hydrolysis stability of select compounds was also tested, e.g., by subjecting these compounds to conditions mimicking the biofilm assays described herein. In one set of exemplary experiments, 3.2 to 4.5 mgs of each of compounds 18a, 12a, 23a, and 21 were treated with 1 mL of sterile water to form a mixture. Each of the mixtures was allowed to be incubated for 24 hours at 37° C. under static conditions analogous to the S. aureus biofilm inhibition assays described herein. After 24 hours, each of the mixtures was extracted with dichloromethane and evaluated, using TLC and NMR, for hydrolysis of each of compounds 18a, 12a, 23a, and 21 to compound 11.

| stability to hydrolysis (to compound 11) [6] | SMILES | Biofilm Eradication MBEC [1] | MIC [3] | further results |
| --- | --- | --- | --- | --- |
| – | CCC(=O)Oc1c(Br)cc(Br)c2nc3ccccc3nc12 [Compound 4a] | 125 µM | – | – |
| – | Oc1c(Br)cc(Br)c2nc3ccccc3nc12 [Compound 11, 2,4-Dibromophenazin-1-ol] | 100-200^c μM | 0.78 µM to 1.56 µM and 0.28 µg/mL to 0.55 µg/mL | pEC50 [2]: 5.45; fold more potent than compound 1 [3]: 32 fold; MIC [4]: > 100 µM; MBEC:MIC ratio ([1]; MRSA-2 biofilm vs planktonic): 64-128; MIC [5]: 1.56 µM (≈ 0.552 µg/mL) |
| stable to hydrolysis | O=C(Oc1c(Br)cc(Br)c2nc3ccccc3nc12)c1ccc(Br)cc1 [Compound 12a] | – | – | – |
| stable to hydrolysis | Cc1ccc(C(=O)Oc2c(Br)cc(Br)c3nc4ccccc4nc23)cc1 [Compound 18a] | – | – | – |
| – | O=C(Oc1c(Br)cc(Br)c2nc3ccccc3nc12)c1ccccc1 [Compound 23, 2,4-Dibromophenazin-1-yl benzoate] | – | 1.56 µM and 0.72 µg/mL | – |
| stable to hydrolysis | O=C(Oc1c(Br)cc(Br)c2nc3ccccc3nc12)c1ccco1 [Compound 23a] | 62.5 to 100 µM | – | – |
| – | O=C(OCC(Cl)(Cl)Cl)Oc1c(Br)cc(Br)c2nc3ccccc3nc12 [Compound 27a] | 125 µM | – | – |

| SMILES | stability to hydrolysis (to compound 11) [6] | Biofilm Eradication MBEC [1] | MIC [3] | further results |
| --- | --- | --- | --- | --- |
| CC(=O)Oc1c(Br)cc(Br)c2nc3ccccc3nc12 [Compound 21, 2,4-Dibromophenazin-1-yl acetate] | stable to hydrolysis | – | 0.78 µM and 0.31 µg/mL | fold more potent than compound 1 [3]: 64 fold |
